# Data published in article PMC11270571 (ACS Omega, 2024).
# Entries after “also recorded” stand apart in the source; their conditions may differ.
# Experiments:
# human AChE = human AChE (Homo sapiens, UniProt P22303); experiment: AChE inhibition, modified Ellman spectrophotometric method; assay type: biochemical; conditions: for inhibition at 100 µM / inhibition at 1000 µM / inhibition at 0.001 µM / inhibition at 0.01 µM / inhibition at 0.1 µM / inhibition at 1 µM / inhibition at 10 µM: read-out: human AChE inhibition %
# human BuChE = human BuChE (Homo sapiens, UniProt P06276); experiment: biochemical; conditions: for inhibition at 100 µM / inhibition at 1000 µM: read-out: human BuChE inhibition%
# [1] = In vitro BBB permeability assay; assay type: in vitro ADME; conditions: PAMPA; for type of BBB permeation: class by Pe
# Chain of human BuChE (P06276 29-602): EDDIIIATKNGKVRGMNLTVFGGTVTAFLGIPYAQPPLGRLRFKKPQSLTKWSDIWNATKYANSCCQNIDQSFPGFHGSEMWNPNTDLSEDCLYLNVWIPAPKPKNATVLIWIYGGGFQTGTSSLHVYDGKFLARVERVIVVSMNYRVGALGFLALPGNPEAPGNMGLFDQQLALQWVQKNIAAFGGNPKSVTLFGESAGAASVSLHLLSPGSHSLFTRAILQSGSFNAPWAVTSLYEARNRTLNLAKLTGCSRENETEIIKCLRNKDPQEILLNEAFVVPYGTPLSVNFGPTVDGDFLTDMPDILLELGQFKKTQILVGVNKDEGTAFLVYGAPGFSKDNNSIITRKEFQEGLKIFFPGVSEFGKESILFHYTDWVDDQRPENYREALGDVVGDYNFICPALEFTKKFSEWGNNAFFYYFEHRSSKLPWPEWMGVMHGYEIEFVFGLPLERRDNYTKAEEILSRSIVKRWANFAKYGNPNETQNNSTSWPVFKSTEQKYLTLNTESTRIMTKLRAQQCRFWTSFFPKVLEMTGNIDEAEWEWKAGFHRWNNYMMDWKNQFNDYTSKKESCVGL
# Chain of human AChE (P22303 32-614): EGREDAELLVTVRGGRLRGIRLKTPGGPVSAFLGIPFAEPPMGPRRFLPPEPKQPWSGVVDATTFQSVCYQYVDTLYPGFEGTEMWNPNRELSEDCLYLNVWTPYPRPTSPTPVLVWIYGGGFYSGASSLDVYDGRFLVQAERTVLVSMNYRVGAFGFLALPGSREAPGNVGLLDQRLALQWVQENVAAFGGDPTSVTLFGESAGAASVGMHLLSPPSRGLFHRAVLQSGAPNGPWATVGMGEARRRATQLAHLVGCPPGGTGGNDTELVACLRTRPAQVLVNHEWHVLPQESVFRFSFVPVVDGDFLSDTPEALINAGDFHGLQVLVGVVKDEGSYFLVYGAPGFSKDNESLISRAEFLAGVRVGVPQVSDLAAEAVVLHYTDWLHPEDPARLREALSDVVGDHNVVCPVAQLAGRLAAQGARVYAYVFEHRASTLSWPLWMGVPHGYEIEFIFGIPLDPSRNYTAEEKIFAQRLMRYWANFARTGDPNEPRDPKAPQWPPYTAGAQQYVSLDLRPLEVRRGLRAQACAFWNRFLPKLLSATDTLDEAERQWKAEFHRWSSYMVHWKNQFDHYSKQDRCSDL
smiles,measurement,setting,value
"O=C(C=Cc1ccc(N2CCOCC2)cc1)c1ccsc1 [Compound 1, 3-(4-Morpholinophenyl)-1-(thiophen-3-yl)prop-2-en-1-one]",IC50,human AChE,> 100 µM
same,inhibition at 100 µM,human AChE,41.1 ± 1.87%
same,inhibition at 1000 µM,human AChE,78.3 ± 2.1%
same,IC50,human BuChE,> 1 mM
same,inhibition at 100 µM,human BuChE,21.3 ± 0.84%
same,inhibition at 1000 µM,human BuChE,46.6 ± 0.92%
"c1ccc(N2N=C(c3ccsc3)CC2c2ccc(N3CCOCC3)cc2)cc1 (centres unmarked) [Compound 2a, 1-Phenyl-3-(thiophen-3-yl)-5-[4-(4-morpholinyl)phenyl]-2-pyrazoline]",BBB permeability (in words),[1],high BBB permeability
same,type of BBB permeation,[1],CNS+ high BBB permeation (high BBB permeation Pe (10^–6 cm s^–1) > 4.0)
same,IC50,human AChE,0.107 ± 0.0048 µM
same,inhibition at 0.001 µM,human AChE,14.7 ± 0.66%
same,inhibition at 0.01 µM,human AChE,20.3 ± 0.99%
same,inhibition at 0.1 µM,human AChE,49.7 ± 1.74%
same,inhibition at 1 µM,human AChE,82.5 ± 1.91%
same,inhibition at 10 µM,human AChE,84.8 ± 1.8%
same,inhibition at 100 µM,human AChE,88.6 ± 2.06%
same,inhibition at 1000 µM,human AChE,91.4 ± 2.46%
same,IC50,human BuChE,> 1 mM
same,inhibition at 100 µM,human BuChE,18.1 ± 0.76%
same,inhibition at 1000 µM,human BuChE,31.1 ± 0.84%
"CS(=O)(=O)c1ccc(N2N=C(c3ccsc3)CC2c2ccc(N3CCOCC3)cc2)cc1 (centres unmarked) [Compound 2b, 1-(4-Methylsulfonylphenyl)-3-(thiophen-3-yl)-5-[4-(4-morpholinyl)phenyl]-2-pyrazoline]",IC50,human AChE,> 1000 µM
same,inhibition at 100 µM,human AChE,23.1 ± 0.95%
same,inhibition at 1000 µM,human AChE,40.6 ± 1.76%
same,IC50,human BuChE,> 1 mM
same,inhibition at 100 µM,human BuChE,15.1 ± 0.78%
same,inhibition at 1000 µM,human BuChE,26.4 ± 0.75%
"Cc1ccc(N2N=C(c3ccsc3)CC2c2ccc(N3CCOCC3)cc2)cc1 (centres unmarked) [Compound 2c, 1-(4-Methylphenyl)-3-(thiophen-3-yl)-5-[4-(4-morpholinyl)phenyl]-2-pyrazoline]",IC50,human AChE,> 100 µM
same,inhibition at 100 µM,human AChE,38.7 ± 1.34%
same,inhibition at 1000 µM,human AChE,73.6 ± 2.06%
same,IC50,human BuChE,> 1 mM
same,inhibition at 100 µM,human BuChE,20.6 ± 0.82%
same,inhibition at 1000 µM,human BuChE,29.3 ± 0.99%
"COc1ccc(N2N=C(c3ccsc3)CC2c2ccc(N3CCOCC3)cc2)cc1 (centres unmarked) [Compound 2d, 1-(4-Methoxyphenyl)-3-(thiophen-3-yl)-5-[4-(4-morpholinyl)phenyl]-2-pyrazoline]",IC50,human AChE,> 100 µM
same,inhibition at 100 µM,human AChE,44.2 ± 1.24%
same,inhibition at 1000 µM,human AChE,84.5 ± 2.36%
same,IC50,human BuChE,> 1 mM
same,inhibition at 100 µM,human BuChE,21.1 ± 0.86%
same,inhibition at 1000 µM,human BuChE,33.1 ± 0.99%
"N#Cc1ccc(N2N=C(c3ccsc3)CC2c2ccc(N3CCOCC3)cc2)cc1 (centres unmarked) [Compound 2e, 1-(4-Cyanophenyl)-3-(thiophen-3-yl)-5-[4-(4-morpholinyl)phenyl]-2-pyrazoline]",IC50,human AChE,> 100 µM
same,inhibition at 100 µM,human AChE,47.6 ± 1.85%
same,inhibition at 1000 µM,human AChE,81.2 ± 1.91%
same,IC50,human BuChE,> 1 mM
same,inhibition at 100 µM,human BuChE,23.4 ± 1.06%
same,inhibition at 1000 µM,human BuChE,38.9 ± 1.22%
"Fc1ccc(N2N=C(c3ccsc3)CC2c2ccc(N3CCOCC3)cc2)cc1 (centres unmarked) [Compound 2f, 1-(4-Fluorophenyl)-3-(thiophen-3-yl)-5-[4-(4-morpholinyl)phenyl]-2-pyrazoline]",IC50,human AChE,> 100 µM
same,inhibition at 100 µM,human AChE,45.4 ± 1.99%
same,inhibition at 1000 µM,human AChE,71.4 ± 2.46%
same,IC50,human BuChE,> 1 mM
same,inhibition at 100 µM,human BuChE,21.9 ± 0.89%
same,inhibition at 1000 µM,human BuChE,31.5 ± 1.15%
"Clc1ccc(N2N=C(c3ccsc3)CC2c2ccc(N3CCOCC3)cc2)cc1 (centres unmarked) [Compound 2g, 1-(4-Chlorophenyl)-3-(thiophen-3-yl)-5-[4-(4-morpholinyl)phenyl]-2-pyrazoline]",type of BBB permeation,[1],CNS ± uncertain BBB permeation
same,IC50,human AChE,0.122 ± 0.0051 µM
same,inhibition at 0.001 µM,human AChE,15.6 ± 0.73%
same,inhibition at 0.01 µM,human AChE,23.1 ± 1.06%
same,inhibition at 0.1 µM,human AChE,47.9 ± 0.96%
same,inhibition at 1 µM,human AChE,79.5 ± 1.57%
same,inhibition at 10 µM,human AChE,82.4 ± 2.17%
same,inhibition at 100 µM,human AChE,86.6 ± 2.56%
same,inhibition at 1000 µM,human AChE,90.7 ± 1.15%
same,IC50,human BuChE,> 1 mM
same,inhibition at 100 µM,human BuChE,20.8 ± 0.93%
same,inhibition at 1000 µM,human BuChE,25 ± 0.96%
"Brc1ccc(N2N=C(c3ccsc3)CC2c2ccc(N3CCOCC3)cc2)cc1 (centres unmarked) [Compound 2h, 1-(4-Bromophenyl)-3-(thiophen-3-yl)-5-[4-(4-morpholinyl)phenyl]-2-pyrazoline]",IC50,human AChE,> 1000 µM
same,inhibition at 100 µM,human AChE,20.9 ± 0.83%
same,inhibition at 1000 µM,human AChE,46.5 ± 1.94%
same,IC50,human BuChE,> 1 mM
same,inhibition at 100 µM,human BuChE,26.2 ± 1.25%
same,inhibition at 1000 µM,human BuChE,40.8 ± 1.94%
"Fc1cccc(N2N=C(c3ccsc3)CC2c2ccc(N3CCOCC3)cc2)c1 (centres unmarked) [Compound 2i, 1-(3-Fluorophenyl)-3-(thiophen-3-yl)-5-[4-(4-morpholinyl)phenyl]-2-pyrazoline]",IC50,human AChE,> 100 µM
same,inhibition at 100 µM,human AChE,37.6 ± 1.51%
same,inhibition at 1000 µM,human AChE,68.3 ± 2.15%
same,IC50,human BuChE,> 1 mM
same,inhibition at 100 µM,human BuChE,27.4 ± 1.38%
same,inhibition at 1000 µM,human BuChE,36.2 ± 1.42%
"Clc1cccc(N2N=C(c3ccsc3)CC2c2ccc(N3CCOCC3)cc2)c1 (centres unmarked) [Compound 2j, 1-(3-Chlorophenyl)-3-(thiophen-3-yl)-5-[4-(4-morpholinyl)phenyl]-2-pyrazoline]",type of BBB permeation,[1],CNS ± uncertain BBB permeation
same,IC50,human AChE,0.062 ± 0.003 µM
same,inhibition at 0.001 µM,human AChE,19 ± 0.63%
same,inhibition at 0.01 µM,human AChE,36.2 ± 0.98%
same,inhibition at 0.1 µM,human AChE,60.8 ± 1.64%
same,inhibition at 1 µM,human AChE,72 ± 1.78%
same,inhibition at 10 µM,human AChE,80.2 ± 2.16%
same,inhibition at 100 µM,human AChE,89.5 ± 1.85%
same,inhibition at 1000 µM,human AChE,93.1 ± 2.85%
same,IC50,human BuChE,> 1 mM
same,inhibition at 100 µM,human BuChE,24.9 ± 0.97%
same,inhibition at 1000 µM,human BuChE,34.3 ± 1.55%
"Brc1cccc(N2N=C(c3ccsc3)CC2c2ccc(N3CCOCC3)cc2)c1 (centres unmarked) [Compound 2k, 1-(3-Bromophenyl)-3-(thiophen-3-yl)-5-[4-(4-morpholinyl)phenyl]-2-pyrazoline]",IC50,human AChE,> 1000 µM
same,inhibition at 100 µM,human AChE,30.3 ± 1.03%
same,inhibition at 1000 µM,human AChE,45.8 ± 1.72%
same,IC50,human BuChE,> 1 mM
same,inhibition at 100 µM,human BuChE,17.6 ± 0.81%
same,inhibition at 1000 µM,human BuChE,29 ± 1.09%
"O=[N+]([O-])c1cccc(N2N=C(c3ccsc3)CC2c2ccc(N3CCOCC3)cc2)c1 (centres unmarked) [Compound 2l, 1-(3-Nitrophenyl)-3-(thiophen-3-yl)-5-[4-(4-morpholinyl)phenyl]-2-pyrazoline]",BBB permeability (in words),[1],high blood–brain barrier permeability; also recorded: high BBB permeability
same,type of BBB permeation,[1],CNS+ high BBB permeation (high BBB permeation Pe (10^–6 cm s^–1) > 4.0)
same,IC50,human AChE,0.04 ± 0.0019 µM
same,inhibition at 0.001 µM,human AChE,19.3 ± 0.75%
same,inhibition at 0.01 µM,human AChE,42.2 ± 1.52%
same,inhibition at 0.1 µM,human AChE,64.6 ± 1.85%
same,inhibition at 1 µM,human AChE,75.4 ± 1.03%
same,inhibition at 10 µM,human AChE,82.6 ± 1.51%
same,inhibition at 100 µM,human AChE,91.7 ± 1.92%
same,inhibition at 1000 µM,human AChE,95.3 ± 2.03%
same,IC50,human BuChE,> 1 mM
same,inhibition at 100 µM,human BuChE,19.3 ± 0.82%
same,inhibition at 1000 µM,human BuChE,30.5 ± 0.97%
